Consider 21 molecules from patent publication US8791143B2, “Anthranilic diamide derivatives having cyclic side-chains” (priority 2010, dated 2014).

Series [1] relates to larvae of the mustard beetle (Phaedon cochleariae). Description: Phaedon test (PHAECO spray treatment). To be noted: Phaedon cochleariae, 168 h, read-out: activity in % (beetle larvae killed).
A short description of series [2]: log P by HPLC on reversed-phase columns (EEC Directive 79/831 Annex V.A8). The format is physicochemical. To be noted: for log P (second value after the slash): pH 2.7.
Series [3] concerns caterpillars of the armyworm (Spodoptera frugiperda). Briefly: Spodoptera frugiperda test (SPODFR spray treatment). The series is classed as in vivo. To be noted: Spodoptera frugiperda, 168 h, read-out: activity in % (caterpillars killed).
The test system of series [4] is green peach aphid (Myzus persicae). Description: Myzus test (MYZUPE spray treatment). The format is in vivo. The note with it: Myzus persicae, 144 h, read-out: activity in % (aphids killed).
Setting [5] is: reversed-phase C18 HPLC column, pH 2.7, HPLC reversed-phase C18, acidic range pH 2.7 (HCOOH), only or first value of the cell, read-out: log P.
[6] abbreviates: application rate 100 g/ha, after 7 days.
Setting [7] is: application rate 100 g/ha, after 6 days.

Like-named read-outs stand apart in the source and are kept apart here.

For `Cc1cc(Cl)cc(C(=O)NC2=NCCS2)c1NC(=O)c1cc(Cn2nnc(C(F)(F)F)n2)nn1-c1ncccc1Cl` [Example 45], the pest or weed control at 100 g/ha in series [1], in series [3] and in series [4] was 100% in each case. Besides, the “log P (second value after the slash)” value in series [2] is 3.14. The molecule also displayed a chromatographic logP in series [2] (pH 2.7, log P) of 3.5.
With `Cc1cc(C#N)cc(C(=O)NC2=NCCS2)c1NC(=O)c1cc(Cn2nnc(C(F)(F)F)n2)nn1-c1ncccc1Cl` [Example 46], the pest or weed control at 100 g/ha in series [1], in series [3] and in series [4] was 100% throughout. In addition, the “log P (second value after the slash)” value in series [2] is 2.75. In series [2] (pH 2.7, log P), this molecule displayed a chromatographic logP of 3.11.
As to `Cc1cc(C#N)cc(C(=O)NC2=NCCS2)c1NC(=O)c1cc(Cn2nnc(C(F)(F)C(F)(F)F)n2)nn1-c1ncccc1Cl` [Example 48], the pest or weed control at 100 g/ha was 100% in series [1], 100% in series [3] and 80% in series [4]. Also, in series [2], the “log P (second value after the slash)” value is 3.18. In series [2] (pH 2.7, log P), this molecule yielded a chromatographic logP of 3.49.
For the molecule `Cc1cc(C#N)cc(C(=O)NC2CCN(C)C2=O)c1NC(=O)c1cc(Cn2nnc(C(F)(F)F)n2)nn1-c1ncccc1Cl` (centres unmarked) [Example 49], the pest or weed control at 100 g/ha in series [1], in series [3] and in series [4] was 100% each time. The “log P (second value after the slash)” value in series [2] is 2.19. This molecule showed a chromatographic logP in series [2] (pH 2.7, log P) of 2.39.
As for `Cc1cc(Cl)cc(C(=O)NC2CCN(C)C2=O)c1NC(=O)c1cc(Cn2nnc(C(F)(F)F)n2)nn1-c1ncccc1Cl` (centres unmarked) [Example 50], the pest or weed control at 100 g/ha in series [1], in series [3] and in series [4] was 100% each time. For the same molecule, the “log P (second value after the slash)” value in series [2] came to 2.36. The molecule also returned a chromatographic logP in series [2] (pH 2.7, log P) of 2.66.
As for `Cc1cc(C#N)cc(C(=O)NC2CCS(=O)(=O)C2)c1NC(=O)c1cc(Cn2nnc(C(F)(F)F)n2)nn1-c1c(Cl)cccc1Cl` (centres unmarked) [Example 54], the pest or weed control at 100 g/ha in series [1] was found to be 100%; in series [3] (setting [6]), 100%; in series [4] (setting [7]), 80%. For the same molecule, in series [2] (setting [5]), the chromatographic logP amounted to 2.95.
In the case of `Cc1cc(Cl)cc(C(=O)NC(C)C2CCCO2)c1NC(=O)c1cc(Cn2nnc(C(F)(F)F)n2)nn1-c1ncccc1Cl` (centres unmarked) [Example 62], the pest or weed control at 100 g/ha in series [1], in series [3] and in series [4] was 100% throughout. The molecule also registered a chromatographic logP in series [2] (pH 2.7, log P) of 3.45.
In the case of `Cc1cc(C#N)cc(C(=O)NCc2ccccc2)c1NC(=O)c1cc(Cn2nnc(C(F)(F)F)n2)nn1-c1ncccc1Cl` [Example 70], the pest or weed control at 100 g/ha in series [1], in series [3] and in series [4] was 100% in each case. This molecule also had a chromatographic logP in series [2] (pH 2.7, log P) of 3.38.
Regarding `Cc1cc(Cl)cc(C(=O)Nc2ccccc2)c1NC(=O)c1cc(Cn2nnc(C(F)(F)F)n2)nn1-c1ncccc1Cl` [Example 72], the figures for the pest or weed control at 100 g/ha in series [1], in series [3] and in series [4] were 100%, 100% and 80%, respectively. Moreover, the chromatographic logP in series [2] (pH 2.7, log P) came out at 3.81.
Turning to `Cc1cc(Cl)cc(C(=O)NC(C)c2ccccc2F)c1NC(=O)c1cc(Cn2nnc(C(F)(F)F)n2)nn1-c1ncccc1Cl` (centres unmarked) [Example 87], the pest or weed control at 100 g/ha in series [1] stood at 100%; in series [3] it was 100%; in series [4], 80%. In addition, the chromatographic logP in series [2] (pH 2.7, log P) was found to be 3.98.
As for `Cc1cc(Cl)cc(C(=O)NCc2ccc([N+](=O)[O-])cc2)c1NC(=O)c1cc(Cn2nnc(C(F)(F)F)n2)nn1-c1ncccc1Cl` [Example 97], the pest or weed control at 100 g/ha is 100% in series [1], 100% in series [3] (setting [6]) and 90% in series [4] (setting [7]). In addition, the chromatographic logP in series [2] (setting [5]) worked out at 3.65.
Take `Cc1cc(Cl)cc(C(=O)NCc2ccc(N)cc2)c1NC(=O)c1cc(Cn2nnc(C(F)(F)F)n2)nn1-c1ncccc1Cl` [Example 140]: the pest or weed control at 100 g/ha in series [1], in series [3] and in series [4] was 100% each time. The same molecule showed a chromatographic logP in series [2] (pH 2.7, log P) of 2.55.
Take `Cc1cc(Cl)cc(C(=O)NCc2ccccc2OC(F)(F)F)c1NC(=O)c1cc(Cn2nnc(C(F)F)n2)nn1-c1ncccc1Cl` [Example 150]: the pest or weed control at 100 g/ha in series [1], in series [3] (setting [6]) and in series [4] (setting [7]) was 100% in each case. Besides, the chromatographic logP in series [2] (setting [5]) was found to be 3.81.
Consider `Cc1cc(Cl)cc(C(=O)NCc2ccc(OC(F)(F)F)cc2)c1NC(=O)c1cc(Cn2nnc(C(F)F)n2)nn1-c1ncccc1Cl` [Example 151], for which the pest or weed control at 100 g/ha in series [1], in series [3] (setting [6]) and in series [4] (setting [7]) was 100% throughout. The chromatographic logP in series [2] (setting [5]) stood at 3.78.
As for `Cc1cc(Cl)cc(C(=O)NCc2ccc(OC(F)F)cc2)c1NC(=O)c1cc(Cn2nnc(C(F)(F)F)n2)nn1-c1ncccc1Cl` [Example 152], the pest or weed control at 100 g/ha in series [1], in series [3] (setting [6]) and in series [4] (setting [7]) was 100% in each case. Further, in series [2] (setting [5]), the chromatographic logP came out at 3.87.
On to `Cc1cc(C#N)cc(C(=O)NCc2ccccc2OC(F)(F)F)c1NC(=O)c1cc(Cn2nnc(C(F)(F)F)n2)nn1-c1ncccc1Cl` [Example 153], for which the values for the pest or weed control at 100 g/ha in series [1], in series [3] (setting [6]) and in series [4] (setting [7]) were 100%, 100% and 90%, respectively. Also, in series [2] (setting [5]), the chromatographic logP was found to be 3.89.
For `O=C(NCc1ccccc1OC(F)(F)F)c1cc(Br)cc(Cl)c1NC(=O)c1cc(Cn2nnc(C(F)(F)F)n2)nn1-c1ncccc1Cl` [Example 193], the pest or weed control at 100 g/ha in series [1] came to 100%; in series [3] (setting [6]), 100%; in series [4] (setting [7]) it was 90%. Further, in series [2] (setting [5]), the chromatographic logP stood at 4.3.
For the molecule `O=C(NCc1ccc(Cl)cc1)c1cc(Cl)cc(F)c1NC(=O)c1cc(Cn2nnc(C(F)(F)F)n2)nn1-c1ncccc1Cl` [Example 206], the pest or weed control at 100 g/ha in series [1], in series [3] (setting [6]) and in series [4] (setting [7]) was 100% in each case. For the same molecule, the chromatographic logP in series [2] (setting [5]) was determined as 3.9.
With `Cc1cc(Cl)cc(C(=O)NCc2ccc(F)cn2)c1NC(=O)c1cc(Cn2nnc(C(F)(F)F)n2)nn1-c1ncccc1Cl` [Example 224], the pest or weed control at 100 g/ha amounted to 100% in series [1], 100% in series [3] and 90% in series [4]. The molecule further returned a chromatographic logP in series [2] (pH 2.7, log P) of 3.24.
As to `Cc1cc(Cl)cc(C(=O)NCc2ncc(F)cc2F)c1NC(=O)c1cc(Cn2nnc(C(F)(F)F)n2)nn1-c1ncccc1Cl` [Example 231], the values for the pest or weed control at 100 g/ha in series [1], in series [3] and in series [4] were 100%, 100% and 90%, respectively. The chromatographic logP in series [2] (pH 2.7, log P) amounted to 3.5.
Regarding `Cc1cc(Cl)cc(C(=O)NC(C)c2ccc(Cl)cn2)c1NC(=O)c1cc(Cn2nnc(C(F)(F)F)n2)nn1-c1ncccc1Cl` (centres unmarked) [Example 236], the pest or weed control at 100 g/ha in series [1] was 100%; in series [3], 100%; in series [4], 90%. The chromatographic logP in series [2] (pH 2.7, log P) worked out at 3.63.
